Each block holds one molecule with its values, some of them ahead of it. Square brackets hold non-standard residues; d marks the D form. Ends that are not written are not given here. Lys(Me3) = C[N+](C)(C)CCCC[C@H](N)C(=O)O
Legend:
[1] = target: human PHF19-Tudor (Homo sapiens, UniProt Q5T6S3); test: NMR chemical shift titration of Phf19-Tudor with histone H3 peptides; format: binding; conditions: for Kd increased by a factor (alanine mutant peptide vs wild-type peptide): NMR, point mutations in histone H3 amino acids 37–41
[2] = target: human PHF19-Tudor (residues 37–95) (human) (UniProt Q5T6S3); test: NMR titration
[3] = target: human PHF19-Tudor (residues 37–95) (human, UniProt Q5T6S3 37-95); test: NMR titration

Molecule: 34GV-Kme3-KPHAY-41 [H3 R10A]
Kd increased by a factor (alanine mutant peptide vs wild-type peptide) [1]: did not increase

Molecule: H3K36me2-containing peptide (NMR)
Kd [2]: 295 µM

Molecule: 34-GV-Kme3-APHRY-41 [H3 K37A]
Kd increased by a factor (alanine mutant peptide vs wild-type peptide) [1]: 2.1

Molecule: 11-mer H3K36me3 peptide (31-ATGGVKme3KPHRY-41)
Kd [2]: 29 µM

The remaining lines, values ahead:

Kd increased by a factor (alanine mutant peptide vs wild-type peptide) [1]: 1.6
Molecule: 34-GV-Kme3-KPHRA-41 [H3 Y41A]

binding to Phf19-Tudor (in words) ([1]; NMR titration): unable to bind
Molecule: 31-ATGGV-Kme3-K-37 [H3_31–36]

Kd [3]: 44 µM
Molecule: GV[Lys(Me3)]KPHRY [short H3K36me3 peptide (34-GV-Kme3-KPHRY-41; called the 7-mer histone H3_(35–41) in the results)]

Source: PMC3926938 (Nature structural & molecular biology, 2012)
